According to PubChem BioAssay AID220 (DTP/NCI, 2004):
“And” between values parts separate entries of the source, which are not always exact repeats. Identical values can stand only once. Records with an inconclusive call do not appear. Residues, ends and D or L forms follow the SMILES beside them. *: point of attachment. Trt = c1ccc(C(c2ccccc2)(c2ccccc2)*)cc1; Cbz = O=C(OCc1ccccc1)*

System: CD8F1 mice, subcutaneous mammary adenocarcinoma, T/C%
Experiment: NCI In Vivo Anticancer Drug Screen. Data for tumor model Mammary Adenocarcinoma CD8F1 (subcutaneous) in CD8F1
Conditions: higher = larger tumour
Method in brief: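 Ratio of treated to vehicle-control outcome, based on either survival or tumor size, in mice bearing transplantable tumors given the test compound.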

[1] = endpoint: median tumor weight (est.), dose: 200.0 mg/kg/injection, schedule: Q07DX005 (ip), vehicle: saline

With `COC(=O)C(CSC(c1ccccc1)(c1ccccc1)c1ccccc1)NC(=O)C(CC(N)=O)NC(=O)OCc1ccccc1` (stereo not drawn) (Cbz-Asn-Cys(Trt)-OMe; configuration not given here) the T/C (endpoint: median tumor weight change, dose: 125.0 mg/kg/injection, schedule: Q01DX001 (ip), vehicle: distilled water + Tween-80) was 101 % of control and 116 % of control, the T/C (endpoint: median tumor weight change, dose: 500.0 mg/kg/injection, schedule: Q01DX001 (ip), vehicle: distilled water + Tween-80) was 50 % of control and the T/C (endpoint: median tumor weight change, dose: 2000.0 mg/kg/injection, schedule: Q01DX001 (ip), vehicle: distilled water + Tween-80) was 40 % of control and 57 % of control.
In the case of `COC1=C(C)C(=O)C2=C(C1=O)C(CO)N1C(C#N)C3CC4C(C1C2N1CCOC41)N3C` (configuration not stated), the T/C (endpoint: median tumor weight change, dose: 0.62 mg/kg/injection, schedule: Q01DX001 (ip), vehicle: saline + alcohol) is reported as 120 % of control and the T/C (endpoint: median tumor weight change, dose: 1.25 mg/kg/injection, schedule: Q01DX001 (ip), vehicle: saline + alcohol) is reported as 98 % of control and 107 % of control and 116 % of control.
In the case of `O=S(=O)(O)O.[NH-]C1CCCCC1[NH-].[Pt+2]` (configuration not stated), the T/C (endpoint: mean tumor weight, dose: 0.63 mg/kg/injection, schedule: Q07DX006 (ip), vehicle: water) is reported as 54 % of control, the T/C (endpoint: mean tumor weight, dose: 1.25 mg/kg/injection, schedule: Q07DX006 (ip), vehicle: water) is reported as 44 % of control and the T/C (endpoint: mean tumor weight, dose: 2.5 mg/kg/injection, schedule: Q07DX006 (ip), vehicle: water) is reported as 4 % of control. For the same molecule, the T/C (endpoint: mean tumor weight, dose: 5.0 mg/kg/injection, schedule: Q07DX006 (ip), vehicle: water) was 1 % of control, the T/C (endpoint: median tumor weight (est.), dose: 0.63 mg/kg/injection, schedule: Q07DX005 (ip), vehicle: dextrose) was 81 % of control and the T/C (endpoint: median tumor weight (est.), dose: 0.63 mg/kg/injection, schedule: Q07DX005 (ip), vehicle: water) was 74 % of control. The T/C (endpoint: median tumor weight (est.), dose: 1.25 mg/kg/injection, schedule: Q07DX005 (ip), vehicle: dextrose) was 41 % of control, the T/C (endpoint: median tumor weight (est.), dose: 1.25 mg/kg/injection, schedule: Q07DX005 (ip), vehicle: water) was 55 % of control and the T/C (endpoint: median tumor weight (est.), dose: 2.5 mg/kg/injection, schedule: Q07DX005 (ip), vehicle: dextrose) was 83 % of control. The T/C (endpoint: median tumor weight (est.), dose: 2.5 mg/kg/injection, schedule: Q07DX005 (ip), vehicle: water) was 41 % of control, the T/C (endpoint: median tumor weight (est.), dose: 5.0 mg/kg/injection, schedule: Q07DX005 (ip), vehicle: dextrose) was 33 % of control and the T/C (endpoint: median tumor weight (est.), dose: 5.0 mg/kg/injection, schedule: Q07DX005 (ip), vehicle: water) was 3 % of control.
`COc1cccc2c1C(=O)c1c(O)c3c(c(O)c1C2=O)C[C@H](O)C[C@@H]3OC1CC(N)C(O)C(C)O1` (some centres not stated) was tested, and the T/C (endpoint: median tumor weight (est.), dose: 0.78 mg/kg/injection, schedule: Q07DX005 (ip), vehicle: saline) was 68 % of control, the T/C (endpoint: median tumor weight (est.), dose: 1.56 mg/kg/injection, schedule: Q07DX005 (ip), vehicle: saline) was 79 % of control and the T/C (endpoint: median tumor weight (est.), dose: 3.12 mg/kg/injection, schedule: Q07DX005 (ip), vehicle: saline) was 82 % of control. For the same molecule, the T/C (endpoint: median tumor weight (est.), dose: 6.25 mg/kg/injection, schedule: Q07DX005 (ip), vehicle: saline) was 84 % of control and the T/C (endpoint: median tumor weight (est.), dose: 12.5 mg/kg/injection, schedule: Q07DX005 (ip), vehicle: saline) was 70 % of control.
`[Na+]` was tested, and the T/C (endpoint: median tumor weight change, dose: 75.0 mg/kg/injection, schedule: Q01DX001 (ip), vehicle: water) was 68 % of control, the T/C (endpoint: median tumor weight change, dose: 150.0 mg/kg/injection, schedule: Q01DX001 (ip), vehicle: water) was 93 % of control and the T/C (endpoint: median tumor weight change, dose: 300.0 mg/kg/injection, schedule: Q01DX001 (ip), vehicle: water) was 66 % of control. For the same molecule, the T/C (endpoint: median tumor weight change, dose: 600.0 mg/kg/injection, schedule: Q01DX001 (ip), vehicle: water) was 85 % of control and the T/C (endpoint: median tumor weight change, dose: 1200.0 mg/kg/injection, schedule: Q01DX001 (ip), vehicle: water) was 67 % of control.
`O=C(Nc1ccccc1C(=O)O)c1cc([N+](=O)[O-])cc([N+](=O)[O-])c1` was tested, and the T/C (endpoint: median tumor weight change, dose: 125.0 mg/kg/injection, schedule: Q01DX001 (ip), vehicle: saline with Tween-80) was 192 % of control and the T/C (endpoint: median tumor weight change, dose: 250.0 mg/kg/injection, schedule: Q01DX001 (ip), vehicle: saline with Tween-80) was 117 % of control.
For `CCC1CC2CN(CCc3c([nH]c4ccccc34)C(C(=O)OC)(c3cc4c(cc3OC)N(C)C3C(O)(C(=O)OC)C(OC(C)=O)C5(CC)C=CCN6CCC43C65)C2)C1` (configuration not stated), the T/C (endpoint: median tumor weight change, dose: 0.31 mg/kg/injection, schedule: Q01DX001 (ip), vehicle: suspension in saline) was 99 % of control, the T/C (endpoint: median tumor weight change, dose: 0.62 mg/kg/injection, schedule: Q01DX001 (ip), vehicle: saline) was 165 % of control and the T/C (endpoint: median tumor weight change, dose: 0.62 mg/kg/injection, schedule: Q01DX001 (ip), vehicle: suspension in saline) was 59 % of control. For the same molecule, the T/C (endpoint: median tumor weight change, dose: 1.25 mg/kg/injection, schedule: Q01DX001 (ip), vehicle: saline) was 110 % of control, the T/C (endpoint: median tumor weight change, dose: 1.25 mg/kg/injection, schedule: Q01DX001 (ip), vehicle: suspension in saline) was 105 % of control and the T/C (endpoint: median tumor weight change, dose: 2.5 mg/kg/injection, schedule: Q01DX001 (ip), vehicle: suspension in saline) was 88 % of control. For the same molecule, the T/C (endpoint: median tumor weight change, dose: 5.0 mg/kg/injection, schedule: Q01DX001 (ip), vehicle: saline) was 184 % of control, the T/C (endpoint: median tumor weight change, dose: 5.0 mg/kg/injection, schedule: Q01DX001 (ip), vehicle: suspension in saline) was 109 % of control and the T/C (endpoint: median tumor weight change, dose: 10.0 mg/kg/injection, schedule: Q01DX001 (ip), vehicle: saline) was 99 % of control. The T/C (endpoint: median tumor weight change, dose: 10.0 mg/kg/injection, schedule: Q01DX001 (ip), vehicle: suspension in saline) was 70 % of control.
With `COc1ccc(CC2C(=O)NC(C)C(=O)N(C)C3Cc4ccc(cc4)Oc4cc(ccc4O)CC(C(=O)NC(C)C(=O)NC(C)C(=O)N2C)N(C)C3=O)cc1` (configuration not stated) the T/C (endpoint: median tumor weight change, dose: 1.25 mg/kg/injection, schedule: Q01DX001 (ip), vehicle: saline with Tween-80) was 55 % of control, the T/C (endpoint: median tumor weight change, dose: 2.5 mg/kg/injection, schedule: Q01DX001 (ip), vehicle: saline with Tween-80) was 111 % of control and the T/C (endpoint: median tumor weight change, dose: 5.0 mg/kg/injection, schedule: Q01DX001 (ip), vehicle: saline with Tween-80) was 115 % of control. For the same molecule, the T/C (endpoint: median tumor weight change, dose: 10.0 mg/kg/injection, schedule: Q01DX001 (ip), vehicle: saline with Tween-80) was 56 % of control and the T/C (endpoint: median tumor weight change, dose: 20.0 mg/kg/injection, schedule: Q01DX001 (ip), vehicle: saline with Tween-80) was 81 % of control.
With `NCCc1ccc(O)c(O)c1` the T/C (endpoint: mean tumor weight, dose: 300.0 mg/kg/injection, schedule: Q07DX005 (ip), vehicle: saline) was 39 % of control, the T/C (endpoint: mean tumor weight, dose: 600.0 mg/kg/injection, schedule: Q07DX005 (ip), vehicle: saline) was 87 % of control and the T/C (endpoint: median tumor weight (est.), dose: 25.0 mg/kg/injection, schedule: Q07DX005 (ip), vehicle: saline) was 62 % of control. The T/C [1] was 83 % of control and the T/C (endpoint: median tumor weight (est.), dose: 300.0 mg/kg/injection, schedule: Q07DX005 (ip), vehicle: saline) was 74 % of control.
In the case of `COc1cccc2c1C(=O)c1c(O)c3c(c(O)c1C2=O)C[C@@](O)(C(=O)CO)C[C@@H]3OC1CC(N(C)C)C(O)C(C)O1` (some centres not stated), the T/C (endpoint: median tumor weight (est.), dose: 2.67 mg/kg/injection, schedule: Q07DX005 (ip), vehicle: water) is reported as 88 % of control.
In the case of `N/C(=N\O)c1cn(C2OC(CO)C(O)C2O)c2ncnc(N)c12` (configuration not stated), the T/C (endpoint: median tumor weight (est.), dose: 4.0 mg/kg/injection, schedule: Q07DX005 (ip), vehicle: saline) is reported as 100 % of control and the T/C (endpoint: median tumor weight (est.), dose: 8.0 mg/kg/injection, schedule: Q07DX005 (ip), vehicle: saline) is reported as 112 % of control.
For `CCC1OCC(C(Cl)CCl)O1` (configuration not stated), the T/C (endpoint: median tumor weight (est.), dose: 25.0 mg/kg/injection, schedule: Q07DX005 (ip), vehicle: Klucel (hydroxypropylcellulose) (HPC)) was 93 % of control, the T/C (endpoint: median tumor weight (est.), dose: 50.0 mg/kg/injection, schedule: Q07DX005 (ip), vehicle: Klucel (hydroxypropylcellulose) (HPC)) was 109 % of control and the T/C (endpoint: median tumor weight (est.), dose: 100.0 mg/kg/injection, schedule: Q07DX005 (ip), vehicle: Klucel (hydroxypropylcellulose) (HPC)) was 74 % of control.
With `COc1cccc2c1C(=O)c1c(O)c3c(c(O)c1C2=O)C[C@@](O)(C(=O)CO)C[C@@H]3OC1CC(N)CC(C)O1` (some centres not stated) the T/C (endpoint: median tumor weight change, dose: 1.8 mg/kg/injection, schedule: Q01DX001 (ip), vehicle: water) was 187 % of control and the T/C (endpoint: median tumor weight change, dose: 3.75 mg/kg/injection, schedule: Q01DX001 (ip), vehicle: water) was 94 % of control.
In the case of `Nc1cccc(=O)[nH]1`, the T/C (endpoint: median tumor weight (est.), dose: 50.0 mg/kg/injection, schedule: Q07DX005 (ip), vehicle: saline) is reported as 21 % of control, the T/C (endpoint: median tumor weight (est.), dose: 100.0 mg/kg/injection, schedule: Q07DX005 (ip), vehicle: saline) is reported as 68 % of control and the T/C [1] is reported as 70 % of control. For the same molecule, the T/C (endpoint: median tumor weight (est.), dose: 400.0 mg/kg/injection, schedule: Q07DX005 (ip), vehicle: saline) was 96 % of control and 100 % of control, the T/C (endpoint: median tumor weight (est.), dose: 400.0 mg/kg/injection, schedule: Q07DX005 (ip), vehicle: suspension in saline) was 47 % of control and the T/C (endpoint: median tumor weight (est.), dose: 800.0 mg/kg/injection, schedule: Q07DX005 (ip), vehicle: saline) was 78 % of control. The T/C (endpoint: median tumor weight (est.), dose: 800.0 mg/kg/injection, schedule: Q07DX005 (ip), vehicle: suspension in saline) was 56 % of control, the T/C (endpoint: median tumor weight (est.), dose: 1600.0 mg/kg/injection, schedule: Q07DX005 (ip), vehicle: suspension in saline) was 59 % of control and the T/C (endpoint: median tumor weight change, dose: 62.5 mg/kg/injection, schedule: Q01DX001 (ip), vehicle: saline) was 55 % of control. For the same molecule, the T/C (endpoint: median tumor weight change, dose: 125.0 mg/kg/injection, schedule: Q01DX001 (ip), vehicle: saline) was 78 % of control, the T/C (endpoint: median tumor weight change, dose: 250.0 mg/kg/injection, schedule: Q01DX001 (ip), vehicle: saline) was 90 % of control and the T/C (endpoint: median tumor weight change, dose: 500.0 mg/kg/injection, schedule: Q01DX001 (ip), vehicle: saline) was 72 % of control. For the same molecule, the T/C (endpoint: median tumor weight change, dose: 1000.0 mg/kg/injection, schedule: Q01DX001 (ip), vehicle: saline) was 70 % of control.
With `O=C1C(=O)c2cccnc2-c2ncccc21` the T/C (endpoint: median tumor weight change, dose: 1.56 mg/kg/injection, schedule: Q01DX001 (ip), vehicle: Klucel (hydroxypropylcellulose) (HPC)) was 107 % of control and the T/C (endpoint: median tumor weight change, dose: 3.12 mg/kg/injection, schedule: Q01DX001 (ip), vehicle: Klucel (hydroxypropylcellulose) (HPC)) was 117 % of control.
